Measured values as given in ChEMBL document CHEMBL1152311, “A multipronged approach to the study of peruvian ethnomedicinal plants: a legacy of the ICBG-Peru Project” (J Nat Prod, 2009).

System: Mycobacterium tuberculosis
Assay: Antituberculosis activity against multidrug-resistant Mycobacterium tuberculosis
Format: functional, organism-based

## C[C@H](C/C=C\C(C)(C)OO)[C@H]1CC[C@@]2(C)[C@@H]3CC[C@H]4C(C)(C)[C@@H](O)CC[C@@]45C[C@@]35CC[C@]12C
  IC50: 27.3 µM
